Reference: paper PMC6973011, “Stafia‐1: a STAT5a‐Selective Inhibitor Developed via Docking‐Based Screening of in Silico O‐Phosphorylated Fragments” (Chemistry (Weinheim an Der Bergstrasse, Germany), 2019)

Key:
[1] = target: T1, STAT5a‐GFP fusion protein (Homo sapiens, UniProt P42229); conditions: K562 cells, 4 h treatment
T1 sequence (P42229 1-794): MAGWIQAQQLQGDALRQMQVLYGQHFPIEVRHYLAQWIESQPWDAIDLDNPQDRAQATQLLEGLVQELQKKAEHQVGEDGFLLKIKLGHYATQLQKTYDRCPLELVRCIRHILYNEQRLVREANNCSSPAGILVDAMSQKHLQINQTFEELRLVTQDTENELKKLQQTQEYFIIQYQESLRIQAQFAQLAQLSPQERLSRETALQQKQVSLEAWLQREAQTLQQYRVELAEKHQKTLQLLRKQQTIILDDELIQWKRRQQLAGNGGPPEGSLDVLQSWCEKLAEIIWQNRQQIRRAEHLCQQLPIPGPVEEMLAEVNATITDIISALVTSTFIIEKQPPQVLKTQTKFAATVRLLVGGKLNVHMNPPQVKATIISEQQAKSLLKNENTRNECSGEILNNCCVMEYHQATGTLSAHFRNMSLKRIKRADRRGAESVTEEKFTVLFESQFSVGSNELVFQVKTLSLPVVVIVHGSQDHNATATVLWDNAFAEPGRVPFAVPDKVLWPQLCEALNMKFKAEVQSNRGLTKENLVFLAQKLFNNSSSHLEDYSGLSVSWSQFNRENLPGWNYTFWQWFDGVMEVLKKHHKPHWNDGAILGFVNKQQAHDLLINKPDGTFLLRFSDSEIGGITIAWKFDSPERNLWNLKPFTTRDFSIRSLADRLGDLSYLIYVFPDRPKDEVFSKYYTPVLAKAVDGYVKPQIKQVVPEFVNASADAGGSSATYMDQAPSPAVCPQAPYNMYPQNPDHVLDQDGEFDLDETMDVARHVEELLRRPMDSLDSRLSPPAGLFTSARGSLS
Experimental: (§1) 27 was tested for its ability to prevent phosphorylation of STAT5a in K562 cells, a human chronic myelogenous leukemia cell line. In these cells, both STAT5a and STAT5b are constitutively phosphorylated on Tyr694 (STAT5a) and Tyr699 (STAT5b), respectively, by Bcr‐Abl. Since phosphorylation is dependent on the function of the SH2 domain, a STAT5 SH2 domain inhibitor will reduce the ability of STAT5 to be tyrosine phosphorylated by Bcr‐Abl (Figure 5 B).
(§2) C) Effect of 27 on phosphorylation of STAT5a in STAT5a‐GFP‐transfected K562 cells, and D) on phosphorylation of STAT5b in STAT5b‐GFP‐transfected K562 cells. E, F) Quantitation of the data shown in C) (n=4), and D) (n=3), respectively. Phospho‐STAT5a/b‐GFP levels are normalized against total STAT5a/b‐GFP. All error bars represent standard deviations (s.d.).
(§3) Chronic myeloid leukemia K562 cells were obtained from DSMZ (Braunschweig, Germany). […]
(§4) Transfection of cultured K562 cells and Western blotting was performed as previously described.[14, 16] […] Primary antibodies (phospho-STAT5, STAT5, β-Actin; 1:1000, Cell Signaling) were detected using α-rabbit-HRP secondary antibody (1:3000, Dako) and ECL (Western Lightning Plus chemiluminescence reagent, Perkin-Elmer).
(§5) Visualization was carried out using an ImageQuant digital imaging system (GE Healthcare) and ImageJ software (NIH) was used for quantitative analysis.[17]

[2] = test system: endogenous STAT5a/b; experiment: Phosphorylation of endogenous STAT5a/b in K562 cells (Western blot)
Experimental: In these cells, both STAT5a and STAT5b are constitutively phosphorylated on Tyr694 (STAT5a) and Tyr699 (STAT5b), respectively, by Bcr‐Abl. Since phosphorylation is dependent on the function of the SH2 domain, a STAT5 SH2 domain inhibitor will reduce the ability of STAT5 to be tyrosine phosphorylated by Bcr‐Abl (Figure 5 B).
Chronic myeloid leukemia K562 cells were obtained from DSMZ (Braunschweig, Germany).
K562 cells were cultured in RPMI 1640 medium (Gibco Life Technologies), supplemented by 10 % (v/v) FBS (Gibco Life Technologies), 2 mM L-glutamine (Gibco Life Technologies) and 1 % (v/v) penicillin/streptomycin (Gibco Life Technologies), at 37 °C, 5 % CO2 and 95 %
In brief, cells were transfected with plasmid encoding either human wild-type STAT5a-GFP or STAT5b-GFP. K562 cells (6 x 10^5 cells per well) were seeded into 24-well plate (Corning) and were transfected using Fugene HD Transfection Reagent (Promega) with a 4:1 ratio of Fugene:DNA. […] After harvesting, cells were centrifuged at 3.000 rpm at 4 °C for 5 min. […] Primary antibodies (phospho-STAT5, STAT5, β-Actin; 1:1000, Cell Signaling) were detected using α-rabbit-HRP secondary antibody (1:3000, Dako) and ECL (Western Lightning Plus chemiluminescence reagent, Perkin-Elmer).
as §5

[3] = target: T2, STAT5b‐GFP construct (Homo sapiens, UniProt P51692); conditions: K562 cells, 4 h treatment
T2 sequence (P51692 1-787): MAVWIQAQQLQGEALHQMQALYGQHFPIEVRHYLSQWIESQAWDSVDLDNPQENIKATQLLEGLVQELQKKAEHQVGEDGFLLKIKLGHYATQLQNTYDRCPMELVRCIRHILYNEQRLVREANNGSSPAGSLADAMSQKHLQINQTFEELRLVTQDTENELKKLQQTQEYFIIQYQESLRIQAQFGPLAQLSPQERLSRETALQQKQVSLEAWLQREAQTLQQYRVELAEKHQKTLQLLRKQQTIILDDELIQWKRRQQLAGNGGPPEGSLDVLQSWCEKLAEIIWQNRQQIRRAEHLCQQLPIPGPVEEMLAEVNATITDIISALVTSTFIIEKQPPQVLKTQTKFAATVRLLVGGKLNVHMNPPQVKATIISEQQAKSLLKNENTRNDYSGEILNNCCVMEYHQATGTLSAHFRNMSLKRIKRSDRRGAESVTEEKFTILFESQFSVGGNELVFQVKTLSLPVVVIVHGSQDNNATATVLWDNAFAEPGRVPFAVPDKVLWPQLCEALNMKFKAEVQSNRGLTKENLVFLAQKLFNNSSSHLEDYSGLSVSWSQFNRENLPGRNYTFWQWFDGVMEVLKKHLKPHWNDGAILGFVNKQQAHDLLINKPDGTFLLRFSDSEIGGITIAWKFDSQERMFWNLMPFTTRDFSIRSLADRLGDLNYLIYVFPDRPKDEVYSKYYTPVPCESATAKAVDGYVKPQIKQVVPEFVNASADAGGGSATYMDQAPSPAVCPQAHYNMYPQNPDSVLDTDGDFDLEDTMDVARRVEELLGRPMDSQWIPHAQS
Experimental: as §1, §2, §3, §4, §5

## COc1cc(-c2cc(-c3cc(OC)c(OC)c(OC)c3)cc(C(F)P(=O)(OCOC(=O)C(C)(C)C)OCOC(=O)C(C)(C)C)c2)cc(OC)c1OC (stereo not drawn) [Compound 27]
[1]
  phosphorylation of STAT5a Tyr694 in the STAT5a-GFP fusion protein: inhibited in a dose‐dependent manner
[2]
  phosphorylation of endogenous STAT5a/b: reduced to a substantially lower degree than that of STAT5a‐GFP
[3]
  phosphorylation of Tyr699 in the STAT5b-GFP construct: only minimally affected
